Consider two molecules from paper PMC6856409 (Journal of medicinal chemistry, 2019).

The test system of one data set is NLRP3 inflammasome. In words: IL-1β release from mouse peritoneal macrophages upon LPS/ATP challenge. The class given is cell-based.
The next data set deals with NLRC4 inflammasome. Nature of the data set: NLRC4 inflammasome selectivity assay, J774A.1 cells, LPS/flagellin, IL-1β ELISA. Type of data set: cell-based, murine. Conditions: 10 μM compound, LPS (1 μg/mL) 1 h, flagellin (1 μg/mL) 6 h. (In general: In an ELISA, binding on a coated surface is turned into a signal by an enzyme label.)
The test system of the next data set is AIM2 inflammasome. In words: AIM2 inflammasome selectivity assay, J774A.1 cells, LPS/poly. The class given is cell-based, murine. Particulars: 10 μM compound, LPS (1 μg/mL) 1 h, poly(dA:dT) (4 μg/ml) 8 h.
The next data set relates to hCMEC/D3 cells. Nature of the data set: Cytotoxicity on hCMEC/D3 cells. Particulars: 20 μM, 2 h.

As to `C#CCNS(=O)(=O)c1ccc(CCN(Cc2cc(Cl)ccc2OC)C(=O)C=C)cc1` [Compound 2, N-(5-chloro-2-methoxybenzyl)-N-(4-(N-(prop-2-yn-1-yl)sulfamoyl)phenethyl)acryl-amide], the “inhibitory activity on IL-1β release” value with NLRP3 inflammasome is recorded as “confirmed”. Further, the “effect on IL-1β production by NLRC4 inflammasome” value in the data set with NLRC4 inflammasome is reported as “significantly inhibited”. Also, the “effect on IL-1β production by AIM2 inflammasome” value in the data set with AIM2 inflammasome is on record as “significantly inhibited”.
On to `C#CCNS(=O)(=O)c1ccc(CCN(Cc2cc(Cl)ccc2OCCC)C(=O)Cc2ccsc2)cc1` [Compound 17, N-(5-chloro-2-propoxybenzyl)-N-(4-(N-(prop-2-yn-1-yl)sulfamoyl)phenethyl)-2-(thio-phen-3-yl)acetamide], for which the “effect on IL-1β production by NLRC4 inflammasome” value in the data set on NLRC4 inflammasome is recorded as “did not significantly interfere”. In the data set on AIM2 inflammasome, the “effect on IL-1β production by AIM2 inflammasome” value is recorded as “did not significantly interfere”. Besides, the “cytotoxicity (cell viability)” value with hCMEC/D3 cells is recorded as “did not show significant toxic effects”.
